≈ marks a conversion by molar mass, not a printed value.
Legend:
Type in all cases: functional
Curvularia pallescens [1] = assay: Antifungal activity against Cochliobolus pallescens assessed as mycelial growth inhibition at 10 ppm at 28 +/-2 degC after 7 days by food poison technique; conditions: 168 h, read-out: GI
Colletotrichum falcatum [2] = assay: Antifungal activity against Glomerella tucumanensis assessed as mycelial growth inhibition at 1000 ppm at 28 +/-2 degC after 7 days by food poison technique; conditions: 168 h, read-out: GI
Colletotrichum falcatum [3] = assay: Antifungal activity against Glomerella tucumanensis assessed as mycelial growth inhibition at 10 ppm at 28 +/-2 degC after 7 days by food poison technique; conditions: 168 h, read-out: GI
Colletotrichum falcatum [4] = assay: Ratio of mancozeb MIC to compound MIC for Glomerella tucumanensis after 7 days by food poison technique
Fusarium oxysporum [5] = assay: Ratio of mancozeb MIC to compound MIC for Fusarium oxysporum after 7 days by food poison technique
Fusarium oxysporum [6] = assay: Antifungal activity against Fusarium oxysporum assessed as mycelial growth inhibition at 100 ppm at 28 +/-2 degC after 7 days by food poison technique; conditions: 168 h, read-out: GI
Curvularia pallescens [7] = assay: Antifungal activity against Cochliobolus pallescens assessed as mycelial growth inhibition at 100 ppm at 28 +/-2 degC after 7 days by food poison technique; conditions: 168 h, read-out: GI
Curvularia pallescens [8] = assay: Ratio of mancozeb MIC to compound MIC for Cochliobolus pallescens after 7 days by food poison technique
Curvularia pallescens [9] = assay: Antifungal activity against Cochliobolus pallescens assessed as mycelial growth inhibition at 28 +/-2 degC after 7 days by food poison technique; conditions: 168 h
Colletotrichum falcatum [10] = assay: Antifungal activity against Glomerella tucumanensis assessed as mycelial growth inhibition at 100 ppm at 28 +/-2 degC after 7 days by food poison technique; conditions: 168 h, read-out: GI
Curvularia pallescens [11] = assay: Antifungal activity against Cochliobolus pallescens assessed as mycelial growth inhibition at 1000 ppm at 28 +/-2 degC after 7 days by food poison technique; conditions: 168 h, read-out: GI
Curvularia pallescens [12] = assay: Ratio of copper oxychloride MIC to compound MIC for Cochliobolus pallescens after 7 days by food poison technique
Fusarium oxysporum [13] = assay: Ratio of copper oxychloride MIC to compound MIC for Fusarium oxysporum after 7 days by food poison technique
Fusarium oxysporum [14] = assay: Antifungal activity against Fusarium oxysporum assessed as mycelial growth inhibition at 1000 ppm at 28 +/-2 degC after 7 days by food poison technique; conditions: 168 h, read-out: GI
Fusarium oxysporum [15] = assay: Ratio of carbendazim MIC to compound MIC for Fusarium oxysporum after 7 days by food poison technique
Fusarium oxysporum [16] = assay: Ratio of thiophanate MIC to compound MIC for Fusarium oxysporum after 7 days by food poison technique
Curvularia pallescens [17] = assay: Ratio of thiophanate MIC to compound MIC for Cochliobolus pallescens after 7 days by food poison technique
Colletotrichum falcatum [18] = assay: Ratio of thiophanate MIC to compound MIC for Glomerella tucumanensis after 7 days by food poison technique
Curvularia pallescens [19] = assay: Ratio of carbendazim MIC to compound MIC for Cochliobolus pallescens after 7 days by food poison technique
Colletotrichum falcatum [20] = assay: Antifungal activity against Glomerella tucumanensis assessed as mycelial growth inhibition at 28 +/-2 degC after 7 days by food poison technique; conditions: 168 h
Colletotrichum falcatum [21] = assay: Ratio of copper oxychloride MIC to compound MIC for Glomerella tucumanensis after 7 days by food poison technique
Colletotrichum falcatum [22] = assay: Ratio of carbendazim MIC to compound MIC for Glomerella tucumanensis after 7 days by food poison technique
Fusarium oxysporum [23] = assay: Antifungal activity against Fusarium oxysporum assessed as mycelial growth inhibition at 10 ppm at 28 +/-2 degC after 7 days by food poison technique; conditions: 168 h, read-out: GI
Fusarium oxysporum [24] = assay: Antifungal activity against Fusarium oxysporum assessed as mycelial growth inhibition at 28 +/-2 degC after 7 days by food poison technique; conditions: 168 h

**Q.** With `CCOP(=S)(OCC)O/C(COc1ccc(Cl)cc1)=N\N=C1/C(=O)Nc2ccccc21` as the molecule, how does the inhibition of growth at 10 ppm (Curvularia pallescens [1]) read?
**A.** 78.2%

**Q.** And the inhibition of growth at 1000 ppm (Colletotrichum falcatum [2])?
**A.** 100%

**Q.** And the inhibition of growth at 10 ppm (Colletotrichum falcatum [3])?
**A.** 80.5%

**Q.** And the Ratio (Colletotrichum falcatum [4])?
**A.** 2

**Q.** What about the Ratio (Fusarium oxysporum [5]) of the same molecule?
**A.** 2

**Q.** What about the inhibition of growth at 100 ppm (Fusarium oxysporum [6]) of the same molecule?
**A.** 89.2%

**Q.** What about the inhibition of growth at 100 ppm (Curvularia pallescens [7]) of the same molecule?
**A.** 84.8%

**Q.** What about the Ratio (Curvularia pallescens [8]) of the same molecule?
**A.** 2

**Q.** What about the MIC (Curvularia pallescens [9]) of the same molecule?
**A.** 1000 µg/mL (≈ 2.08 mM)

**Q.** What about the inhibition of growth at 100 ppm (Colletotrichum falcatum [10]) of the same molecule?
**A.** 90.2%

**Q.** And the inhibition of growth at 1000 ppm (Curvularia pallescens [11])?
**A.** 100%

**Q.** And the Ratio (Curvularia pallescens [12])?
**A.** 2

**Q.** What about the Ratio (Fusarium oxysporum [13]) of the same molecule?
**A.** 2

**Q.** And the inhibition of growth at 1000 ppm (Fusarium oxysporum [14])?
**A.** 100%

**Q.** And the Ratio (Fusarium oxysporum [15])?
**A.** 2

**Q.** What about the Ratio (Fusarium oxysporum [16]) of the same molecule?
**A.** 2

**Q.** What about the Ratio (Curvularia pallescens [17]) of the same molecule?
**A.** 2

**Q.** And the Ratio (Colletotrichum falcatum [18])?
**A.** 2

**Q.** What about the Ratio (Curvularia pallescens [19]) of the same molecule?
**A.** 2

**Q.** And the MIC (Colletotrichum falcatum [20])?
**A.** 1000 µg/mL (≈ 2.08 mM)

**Q.** What about the Ratio (Colletotrichum falcatum [21]) of the same molecule?
**A.** 2

**Q.** And the Ratio (Colletotrichum falcatum [22])?
**A.** 2

**Q.** What about the inhibition of growth at 10 ppm (Fusarium oxysporum [23]) of the same molecule?
**A.** 80%

**Q.** And the MIC (Fusarium oxysporum [24])?
**A.** 1000 µg/mL (≈ 2.08 mM)

**Q.** `COC(=O)NC(=S)Nc1ccccc1NC(=S)NC(=O)OC` [THIOPHANATE METHYL] was tested. Which MIC (Curvularia pallescens [9]) did it give?
**A.** 4000 µg/mL (≈ 11.7 mM)

**Q.** What about the MIC (Colletotrichum falcatum [20]) of the same molecule?
**A.** 4000 µg/mL (≈ 11.7 mM)

**Q.** What about the MIC (Fusarium oxysporum [24]) of the same molecule?
**A.** 4000 µg/mL (≈ 11.7 mM)

**Q.** Which results are given for `COC(=O)Nc1nc2ccccc2[nH]1` [CARBENDAZIM]?
**A.** MIC (Curvularia pallescens [9]): 4000 µg/mL (≈ 20.9 mM); MIC (Colletotrichum falcatum [20]): 4000 µg/mL (≈ 20.9 mM); MIC (Fusarium oxysporum [24]): 3000 µg/mL (≈ 15.7 mM)

**Q.** Which inhibition of growth at 10 ppm (Curvularia pallescens [1]) does the source give for `CCOP(=S)(OCC)O/C(COc1ccc(OP(=S)(OCC)OCC)cc1)=N\N=C1/C(=O)Nc2ccccc21` here?
**A.** 68.6%

**Q.** And the inhibition of growth at 1000 ppm (Colletotrichum falcatum [2])?
**A.** 100%

**Q.** And the inhibition of growth at 10 ppm (Colletotrichum falcatum [3])?
**A.** 75.1%

**Q.** And the Ratio (Colletotrichum falcatum [4])?
**A.** 2

**Q.** And the Ratio (Fusarium oxysporum [5])?
**A.** 2

**Q.** And the inhibition of growth at 100 ppm (Fusarium oxysporum [6])?
**A.** 82.6%

**Q.** What about the inhibition of growth at 100 ppm (Curvularia pallescens [7]) of the same molecule?
**A.** 80.5%

**Q.** And the Ratio (Curvularia pallescens [8])?
**A.** 2

**Q.** And the MIC (Curvularia pallescens [9])?
**A.** 1000 µg/mL (≈ 1.62 mM)

**Q.** What about the inhibition of growth at 100 ppm (Colletotrichum falcatum [10]) of the same molecule?
**A.** 86.2%

**Q.** What about the inhibition of growth at 1000 ppm (Curvularia pallescens [11]) of the same molecule?
**A.** 100%

**Q.** What about the Ratio (Curvularia pallescens [12]) of the same molecule?
**A.** 2

**Q.** What about the Ratio (Fusarium oxysporum [13]) of the same molecule?
**A.** 2

**Q.** What about the inhibition of growth at 1000 ppm (Fusarium oxysporum [14]) of the same molecule?
**A.** 100%

**Q.** And the Ratio (Fusarium oxysporum [15])?
**A.** 2

**Q.** What about the Ratio (Fusarium oxysporum [16]) of the same molecule?
**A.** 2

**Q.** What about the Ratio (Curvularia pallescens [17]) of the same molecule?
**A.** 2

**Q.** What about the Ratio (Colletotrichum falcatum [18]) of the same molecule?
**A.** 2

**Q.** What about the Ratio (Curvularia pallescens [19]) of the same molecule?
**A.** 2

**Q.** What about the MIC (Colletotrichum falcatum [20]) of the same molecule?
**A.** 1000 µg/mL (≈ 1.62 mM)

**Q.** What about the Ratio (Colletotrichum falcatum [21]) of the same molecule?
**A.** 2

**Q.** And the Ratio (Colletotrichum falcatum [22])?
**A.** 2

**Q.** What about the inhibition of growth at 10 ppm (Fusarium oxysporum [23]) of the same molecule?
**A.** 70.2%

**Q.** And the MIC (Fusarium oxysporum [24])?
**A.** 1000 µg/mL (≈ 1.62 mM)
